Test system: human p38β mRNA
Test: Inhibition of human p38β mRNA expression in HUVEC cells, Northern blot
Type: cell-based
Experimental: The human Jurkat T-cell line (American Type Culture Collection, Manassas, Va.) was maintained in RPMI 1640 growth media supplemented with 10% fetal bovine serum (FBS; Hyclone, Logan, Utah). HUVEC cells (Clonetics, San Diego, Calif.) were cultivated in endothelial basal media supplemented with 10% FBS (Hyclone, Logan, Utah).
HUVEC cells were allowed to reach 75% confluency prior to use. The cells were washed twice with warm (37° C.) OPTI-MEM™ (Life Technologies). The cells were incubated in the presence of the appropriate culture medium, without the growth factors added, and the oligonucleotide formulated in LIPOFECTIN7 (Life Technologies), a 1:1 (w/w) liposome formulation of the cationic lipid N-[1-(2,3-dioleyloxy)propyl]-n,n,n-trimethylammonium chloride (DOTMA), and dioleoyl phosphotidylethanolamine (DOPE) in membrane filtered water. HUVEC cells were treated with 100 nM oligonucleotide in 10 μg/ml LIPOFECTIN7. Treatment was for four hours.
Total mRNA was isolated using the RNEASY7 Mini Kit (Qiagen, Valencia, Calif.; similar kits from other manufacturers may also be used), separated on a 1% agarose gel, transferred to HYBOND™-N+ membrane (Amersham Pharmacia Biotech, Piscataway, N.J.), a positively charged nylon membrane, and probed. p38 MAPK probes were made using the Prime-A-Gene7 kit (Promega Corporation, Madison, Wis.), a random primer labeling kit, using mouse p38α or p38β cDNA as a template. A glyceraldehyde 3-phosphate dehydrogenase (G3PDH) probe was purchased from Clontech (Palo Alto, Calif.), Catalog Number 9805-1. The fragments were purified from low-melting temperature agarose, as described in Maniatis, T., et al., Molecular Cloning: A Laboratory Manual, 1989. The G3PDH probe was labeled with REDIVUE™ ^32P-dCTP (Amersham Pharmacia Biotech, Piscataway, N.J.) and Strip-EZ labelling kit (Ambion, Austin, Tex.). mRNA was quantitated by a PhosphoImager (Molecular Dynamics, Sunnyvale, Calif.).
Every oligonucleotide tested gave at least 50% inhibition.
Oligonucleotides 17893 (SEQ ID NO. 27), 17899 (SEQ ID NO:33), 17904 (SEQ ID NO. 38), and 17907 (SEQ ID NO. 41) were chosen for dose response studies. HUVEC cells were cultured and treated as described in Example 2 except that the oligonucleotide concentration was varied as shown in Table 6. The Lipofectin7/Oligo ratio was maintained at 3 μg Lipofectin7/100 nM oligo, per ml. mRNA was measured by Northern blot as described in Example 2.

[1] = 100 nM oligonucleotide in 10 μg/ml LIPOFECTIN, four hours, Northern blot

Sequence	% mRNA EXPRESSION [1] [%]	% mRNA Inhibition [1] [%]	further results
CGACATGTCCGGAGCAGAAT (chemistry not fully specified) [ISIS 17891]	22	78	–
ACACATGTTTGTGCATGCAT (antisense; chemistry not fully specified) [ISIS 17906]	22	78	–
GCGTGAAGACGTCCAGAAGC (chemistry not fully specified) [ISIS 17896]	24	76	–
TCTGTGACCATAGGAGTGTG (antisense; chemistry not fully specified) [ISIS 17905]	14	86	–
ACTTGACGATGTTGTTCAGG (antisense; chemistry not fully specified) [ISIS 17897]	25	75	–
ATGATGCGCTTCAGCTGGTC (chemistry not fully specified) [ISIS 17901]	15	85	–
CCTACACATGGCAAGCACAT (chemistry not fully specified) [ISIS 17907]	8	92	% mRNA EXPRESSION (dose 10 nM): 37%; % mRNA Inhibition (dose 10 nM): 63%; % mRNA EXPRESSION (dose 25 nM): 22%; % mRNA Inhibition (dose 25 nM): 78%; % mRNA EXPRESSION (dose 50 nM): 18%; % mRNA Inhibition (dose 50 nM): 72%; % mRNA EXPRESSION (dose 100 nM): 18%; % mRNA Inhibition (dose 100 nM): 72%
CAGCACCTCACTGCTCAATC (chemistry not fully specified) [ISIS 17904]	9	91	% mRNA EXPRESSION (dose 10 nM): 31%; % mRNA Inhibition (dose 10 nM): 69%; % mRNA EXPRESSION (dose 25 nM): 21%; % mRNA Inhibition (dose 25 nM): 79%; % mRNA EXPRESSION (dose 50 nM): 17%; % mRNA Inhibition (dose 50 nM): 83%; % mRNA EXPRESSION (dose 100 nM): 19%; % mRNA Inhibition (dose 100 nM): 81%
AACGTGCTCGTCAAGTGCCA (chemistry not fully specified) [ISIS 17898]	49	51	–
TCCAGGCTGAGCAGCTCTAA (chemistry not fully specified) [ISIS 17908]	17	83	–
AACGCTCTCATCATATGGCT (chemistry not fully specified) [ISIS 17903]	11	89	–
GCCAGTGCCTCAGGTGCACT [ISIS 17902]	49	51	–
CCGAACAGACGGAGCCGTAT (chemistry not fully specified) [ISIS 17894]	13	87	–
ACTGTTTGGTTGTAATGCAT (antisense; chemistry not fully specified) [ISIS 17900]	40	60	–
CTTGCCAGATATGGCTGCTG (chemistry not fully specified) [ISIS 17910]	26	74	–
GTGCTTCAGGTGCTTGAGCA (chemistry not fully specified) [ISIS 17895]	25	75	–
AGTGCACGCTCATCCACACG (chemistry not fully specified) [ISIS 17909]	13	87	–

Reference: patent publication US20040171566A1, “Antisense modulation of p38 mitogen activated protein kinase expression” (priority 1999, published 2004)
